Experiments:
HL-60 cells = assay: Rhodamine-123 mitochondrial membrane potential assay, HL-60; type: cell-based, human; settings: compared to untreated cells
HL-60 cancer cells = assay: Quantification of apoptosis (Annexin V-PI), HL-60; type: cell-based, human; settings: HL-60 cells
From the text: Apoptotic population of cancer cells was quantified by Annexin V-propidium iodide (PI) staining technique (Abcam, Cambridge, MA, USA) using a flow cytometer as per published technique.

caspase-9 = assay: Caspase-9 colorimetric assay, MCF-7; type: cell-based, human; settings: MCF-7 cells
Method: (§1) Caspases-3, -8 and -9 assays were measured according to manufacturer’s instructions using a caspase colorimetric protease kit (Abcam, Cambridge, MA, USA). Cells were treated with compounds for 48 h. The cells were lysed by the addition of 50 μL of chilled cell lysis buffer and incubated on ice for 10 min. The resulting cell lysate was centrifuged for 1 min at 10,000 g, and the supernatant was collected. The cell lysate containing […] of protein was incubated with […] of 4 mmol/L pNA-conjugated substrates (DEVD-pNA, IETD-pNA and LEHD-pNA; substrates for caspase-3, -8 and -9, respectively) at 37 °C for 3 h. The amount of pNA released was measured at 405 nm using an ELISA microplate reader (Bio rad). The caspases activity was expressed as fold difference, [33].

[1] = system: MCF-10A mammary epithelial cells; assay: MTT assay on normal MCF-10A cells; type: cell-based; settings: Homo sapiens, MTT assay, normal cells, 48 h, read-out: IC50 MCF-10A Breast (normal cell line)
[2] = system: HeLa cervical cancer cells; assay: MTT antiproliferative assay, HeLa; type: cell-based; settings: Homo sapiens, MTT assay, cancer cell line, mean of three independent experiments ± S.E.M., read-out: IC50 HeLa Cervical
[3] = system: MIA PaCa-2 pancreatic cancer cells; assay: MTT antiproliferative assay, MIA PaCa-2; type: cell-based; settings: Homo sapiens, MIA PaCa-2; MTT assay; cancer cell line; mean of three independent experiments ± S.E.M.; read-out: IC50 MIA PaCa-2 Pancreatic
caspase-3 = assay: Caspase-3 colorimetric assay, MCF-7; type: cell-based, human; settings: MCF-7 cells
Method: as §1

HL-60 leukemia cells = assay: MTT antiproliferative assay, HL-60; type: cell-based, human
[4] = system: human peripheral blood mononuclear cells (PBMC); assay: MTT assay on normal PBMC; type: cell-based; settings: MTT assay, normal cells, 48 h, read-out: IC50 PBMC (normal cells)
Bax [5] = assay: Quantification of Bax (immunometric assay), MCF-7; type: cell-based, human; settings: MCF-7 cells; compared to untreated cells
Method: (§2) Bax protein concentration determination was carried out using the Human Bax Enzyme Immunometric Assay kit (Assay Designs, Ann Arbor, MI, USA). The lysate (sample) preparation was carried out according to the manual. Following centrifugation (16,000 g for 15 min), the cells were resuspended in Modified Cell lysis buffer 4 [0.5 μL/mL of Sigma Protease Inhibitor Cocktail and 1 mM phenylmethylsulfonyl fluoride (PMSF)]. Cell lysate (100 μL) (sample) was added into the wells coated with monoclonal antibody to human Bax-α in triplicate. The plate was tapped gently to mix the contents. The sample was incubated at room temperature on a plate shaker for 1 h. The wells were emptied and washed with 5X wash buffer. After the final wash, the plate was tapped gently on a lint free paper towel to remove any remaining wash buffer. The sample was incubated again for 1 h at room temperature on a plate shaker after the addition of 100 μL of specific antibody (biotinylated monoclonal antibody to Bax-α) into each well. The wells were washed again with 5X wash buffer and emptied. Next, 100 μL of blue conjugate (streptavidin conjugated to horseradish peroxidase) was added into each well. […] The optical densities were read at 450 and 570 nm using an ELISA reader. Bax protein concentration was determined from the standard protein graphic using the optical densities of the samples[32].

caspase-8 = assay: Caspase-8 colorimetric assay, HL-60; type: cell-based, human; settings: HL-60 cells; data not showed
Method: as §1

Bax [6] = assay: Quantification of Bax (immunometric assay), HL-60; type: cell-based, human; settings: HL-60 cells; compared to untreated cells
Method: as §2

MCF-7 cancer cells = assay: Cell cycle analysis (PI, flow cytometry), MCF-7; type: cell-based, human; settings: MCF-7 cells; 5 and 10 µM; 24 h
Method: Cancer cells (1 × 10^6/ml) were treated with different concentrations of compound (5 and10 µM) for 24 h, fixed in cold 70% alcohol in PBS, washed, digested with DNase free RNase (400 µg/mL) at 37 °C for 45 min and stained with propidium iodide (10 µg/ml). Cells were analyzed for PI-DNA fluorescence by flow cytometerically using FACS CALIBUR (Becton Dickinson, Franklin Lakes, New Jersey, USA)[28]–[30]. The fluorescence intensity of subG0/GI cell fraction represents the dead cell population.

[7] = system: CaCo-2 colon cancer cells; assay: MTT antiproliferative assay, CaCo-2; type: cell-based; settings: Homo sapiens, Caco-2; MTT assay; cancer cell line; mean of three independent experiments ± S.E.M.; read-out: IC50 CaCo-2 Colon
MCF-7 cells = assay: Rhodamine-123 mitochondrial membrane potential assay, MCF-7; type: cell-based, human; settings: 24 h
Method: [Worded in the source for another cell line; this cell line is reported under the same test.] Mitochondrial membrane potential changes (ΔΨm) were determined by flow cytometry using rhodamine-123 (green-fluorescent dye)[32]. MIA PaCa-2 pancreatic cancer cells (1 × 10^6 cells/well) were exposed to the isolated compound (5 µM) for 24 h. Further, rhodamine-123 (200 nM) was added to the cells, which were kept in dark for 35 min. The cells were further centrifuged and the pellet was washed with phosphate buffered saline (1 ml). The intensity of fluorescence in the cells represented the mitochondrial membrane potential change (ΔΨm), which was measured using a flow cytometer.

effect on caspase-9 activity (caspase-9): enhanced caspase-3 and -9 activities
IC50 [2]: 7.85 ± 0.57 µM
IC50 [3]: 12.9 ± 0.52 µM
effect on caspase-3 activity (caspase-3): enhanced caspase-3 and -9 activities
IC50 (HL-60 leukemia cells; Homo sapiens, HL-60, MTT assay, cancer cell line, mean of three independent experiments ± S.E.M., read-out: IC50 HL-60 Leukemia): 4.43 ± 0.35 µM
effect on caspase-8 activity (caspase-8): did not exhibit considerable effect
IC50 [7]: 8.66 ± 0.72 µM
SMILES: COc1cc(CO)ccc1OC1OC(COC(=O)c2ccc(F)cc2)C(O)C(O)C1O (stereo not drawn) [Compound 9f, (6-(4-(hydroxymethyl)-2-methoxyphenoxy)-tetrahydro-3,4,5-trihydroxy-2H-pyran-2-yl)methyl 4-fluorobenzoate]
mitochondria membrane potential loss (HL-60 cells; 5 µM): 55.32 ± 2.14%
mitochondria membrane potential loss (HL-60 cells; 10 µM): 65.56 ± 2.56%
apoptotic cell population (HL-60 cancer cells): increase in the early apoptotic to late apoptotic cells in a dose-dependent fashion
IC50 [1]: > 100 µM
anti-proliferative effect at 24 h (HL-60 leukemia cells; HL-60 cells, 24 h, versus camptothecin (positive control)): better antiproliferative effect than camptothecin
IC50 [4]: > 100 µM
effect on Bax protein levels (Bax [5]): dose dependently increased
effect on Bax protein levels (Bax [6]): increase in Bax protein levels
effect on cell cycle distribution (MCF-7 cancer cells): cell cycle arrest at G0/G1 phase
mitochondria membrane potential loss (MCF-7 cells; 5 µM): 41.33 ± 1.43%
mitochondria membrane potential loss (MCF-7 cells; 10 µM): 52.67 ± 2.33%
